# Values joined by “and” are separate entries in the source; they are usually repeats but may differ in a detail not shown here. Equal values may be shown once.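 Tested at 5 concentrations; 48 h exposure; 96-well plates; endpoints linearly interpolated, else capped at highest concentration. At the GI50, growth is halved. At the TGI there is no net growth.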
# Columns and labels:
# Assay in all cases: NCI tumour cell line growth inhibition, 48 h
# RPMI-8226 leukemia = test system: RPMI-8226 leukemia
# RXF 393 renal = test system: RXF 393 renal
# SNB-75 CNS = test system: SNB-75 CNS
# SF-295 CNS = test system: SF-295 CNS
# M14 melanoma = test system: M14 melanoma
# NCI-H522 lung = test system: NCI-H522 lung
# UACC-62 melanoma = test system: UACC-62 melanoma
# DU-145 prostate = test system: DU-145 prostate
# UACC-257 melanoma = test system: UACC-257 melanoma
# SF-539 CNS = test system: SF-539 CNS
# NCI-H460 lung = test system: NCI-H460 lung
# SF-268 CNS = test system: SF-268 CNS
# SW-620 colon = test system: SW-620 colon
# SK-MEL-2 melanoma = test system: SK-MEL-2 melanoma
# EKVX NSCLC = test system: EKVX NSCLC
# SN12C renal = test system: SN12C renal
# U251 CNS = test system: U251 CNS
# SK-OV-3 ovarian = test system: SK-OV-3 ovarian
# BT-549 breast = test system: BT-549 breast
# MDA-MB-435 = test system: MDA-MB-435
# HOP-62 NSCLC = test system: HOP-62 NSCLC
# TK-10 renal = test system: TK-10 renal
# PC-3 prostate = test system: PC-3 prostate
# A549 NSCLC = test system: A549 NSCLC
# T-47D breast = test system: T-47D breast
# NCI-H23 lung = test system: NCI-H23 lung
# COLO 205 colon = test system: COLO 205 colon
# 786-0 renal = test system: 786-0 renal
# HOP-92 NSCLC = test system: HOP-92 NSCLC
# OVCAR-5 ovarian = test system: OVCAR-5 ovarian
# SK-MEL-28 melanoma = test system: SK-MEL-28 melanoma
# OVCAR-4 ovarian = test system: OVCAR-4 ovarian
# HCC-2998 colon = test system: HCC-2998 colon
# ACHN renal = test system: ACHN renal
# NCI/ADR-RES ovarian = test system: NCI/ADR-RES ovarian
# A498 renal = test system: A498 renal
# IGROV1 ovarian = test system: IGROV1 ovarian
# HL-60(TB) leukemia = test system: HL-60(TB) leukemia
# HS 578T breast = test system: HS 578T breast
# MDA-MB-231 breast = test system: MDA-MB-231 breast
# SNB-19 CNS = test system: SNB-19 CNS
# CAKI-1 renal = test system: CAKI-1 renal
# UO-31 renal = test system: UO-31 renal
# KM12 colon = test system: KM12 colon
# HT29 colon = test system: HT29 colon
# HCT-15 colon = test system: HCT-15 colon
# MCF7 breast = test system: MCF7 breast
# OVCAR-3 ovarian = test system: OVCAR-3 ovarian
compound,measurement,setting,value
CC(=O)OCC1OC(n2c(-c3ccccc3)cc(-c3ccccc3)c(C#N)c2=O)C(OC(C)=O)C(OC(C)=O)C1OC(C)=O (centres undefined),GI50,RPMI-8226 leukemia,16000 nM and 39700 nM
same,TGI,RPMI-8226 leukemia,> 100000 nM
same,TGI,RXF 393 renal,> 100000 nM
same,GI50,SNB-75 CNS,22000 nM and 98500 nM
same,TGI,SNB-75 CNS,> 100000 nM
CCCCC/C=C/C/C=C/CCCCCCCC1=NC(C)(C)CN1C(C)C,GI50,SF-295 CNS,1490 nM
same,TGI,SF-295 CNS,2830 nM
same,GI50,M14 melanoma,1850 nM
same,TGI,M14 melanoma,3400 nM
same,GI50,NCI-H522 lung,1720 nM
same,TGI,NCI-H522 lung,3170 nM
same,GI50,UACC-62 melanoma,1690 nM
same,TGI,UACC-62 melanoma,3120 nM
same,GI50,DU-145 prostate,1730 nM
same,TGI,DU-145 prostate,3110 nM
same,GI50,UACC-257 melanoma,1720 nM
same,TGI,UACC-257 melanoma,3200 nM
same,GI50,SF-539 CNS,1820 nM
same,TGI,SF-539 CNS,3300 nM
same,GI50,NCI-H460 lung,1820 nM
same,TGI,NCI-H460 lung,3340 nM
same,GI50,SF-268 CNS,1680 nM
same,TGI,SF-268 CNS,3050 nM
same,GI50,SW-620 colon,1600 nM
same,TGI,SW-620 colon,2990 nM
same,GI50,SK-MEL-2 melanoma,1850 nM
same,TGI,SK-MEL-2 melanoma,3350 nM
same,GI50,EKVX NSCLC,1300 nM
same,TGI,EKVX NSCLC,2730 nM
same,GI50,RXF 393 renal,2100 nM
same,TGI,RXF 393 renal,4800 nM
same,GI50,SN12C renal,1710 nM
same,TGI,SN12C renal,4080 nM
same,GI50,U251 CNS,1530 nM
same,TGI,U251 CNS,2870 nM
same,GI50,SK-OV-3 ovarian,3070 nM
same,TGI,SK-OV-3 ovarian,12600 nM
same,GI50,BT-549 breast,5840 nM
same,TGI,BT-549 breast,23000 nM
same,GI50,SNB-75 CNS,1440 nM
same,TGI,SNB-75 CNS,2870 nM
same,GI50,MDA-MB-435,1500 nM
same,TGI,MDA-MB-435,2820 nM
same,GI50,HOP-62 NSCLC,1580 nM
same,TGI,HOP-62 NSCLC,3170 nM
same,GI50,TK-10 renal,1670 nM
same,TGI,TK-10 renal,3040 nM
same,GI50,PC-3 prostate,1700 nM
same,TGI,PC-3 prostate,3410 nM
same,GI50,A549 NSCLC,1770 nM
same,TGI,A549 NSCLC,3200 nM
same,GI50,T-47D breast,1970 nM
same,TGI,T-47D breast,3980 nM
same,GI50,NCI-H23 lung,1490 nM
same,TGI,NCI-H23 lung,3240 nM
same,GI50,COLO 205 colon,1470 nM
same,TGI,COLO 205 colon,2790 nM
same,GI50,786-0 renal,2240 nM
same,TGI,786-0 renal,5120 nM
same,GI50,HOP-92 NSCLC,1310 nM
same,TGI,HOP-92 NSCLC,3370 nM
same,GI50,OVCAR-5 ovarian,1870 nM
same,TGI,OVCAR-5 ovarian,4100 nM
same,GI50,SK-MEL-28 melanoma,1700 nM
same,TGI,SK-MEL-28 melanoma,3070 nM
same,GI50,OVCAR-4 ovarian,1550 nM
same,TGI,OVCAR-4 ovarian,3000 nM
same,GI50,HCC-2998 colon,1670 nM
same,TGI,HCC-2998 colon,3060 nM
same,GI50,ACHN renal,1700 nM
same,TGI,ACHN renal,3070 nM
same,GI50,NCI/ADR-RES ovarian,2320 nM
same,TGI,NCI/ADR-RES ovarian,7440 nM
same,GI50,A498 renal,2350 nM
same,TGI,A498 renal,15500 nM
same,GI50,IGROV1 ovarian,1230 nM
same,TGI,IGROV1 ovarian,2470 nM
same,GI50,HL-60(TB) leukemia,1480 nM
same,TGI,HL-60(TB) leukemia,3430 nM
same,GI50,HS 578T breast,1840 nM
same,TGI,HS 578T breast,3670 nM
same,GI50,MDA-MB-231 breast,1750 nM
same,TGI,MDA-MB-231 breast,4360 nM
same,GI50,SNB-19 CNS,1590 nM
same,TGI,SNB-19 CNS,3000 nM
same,GI50,CAKI-1 renal,1300 nM
same,TGI,CAKI-1 renal,2570 nM
same,GI50,UO-31 renal,1210 nM
same,TGI,UO-31 renal,2450 nM
same,GI50,KM12 colon,1610 nM
same,TGI,KM12 colon,2960 nM
same,GI50,HT29 colon,1380 nM
same,TGI,HT29 colon,2740 nM
same,GI50,HCT-15 colon,1630 nM
same,TGI,HCT-15 colon,3170 nM
same,GI50,MCF7 breast,1540 nM
same,TGI,MCF7 breast,2870 nM
same,GI50,OVCAR-3 ovarian,1490 nM
same,TGI,OVCAR-3 ovarian,2810 nM

# Source: PubChem BioAssay (NCI)
